What all share (test): NCI tumour cell line growth inhibition, 48 h
The test system of assay [1] is 786-0 renal.
In assay [2] the test system is A498 renal.
Assay [3] relates to HOP-62 NSCLC.
Assay [4] relates to HOP-92 NSCLC.
For assay [5], the system named is K-562 leukemia.
For assay [6], the system named is M14 melanoma.
For assay [7], the system named is MALME-3M melanoma.
The subject of assay [8] is MOLT-4 leukemia.
The subject of assay [9] is NCI-H522 lung.
Assay [10] relates to OVCAR-5 ovarian.
Assay [11] has as its system SF-539 CNS.
Assay [12] relates to SN12C renal.
Assay [13] deals with UO-31 renal.
Assay [14] relates to OVCAR-3 ovarian.
The test system of assay [15] is OVCAR-8 ovarian.

Here are results for 19 compounds from PubChem BioAssay (NCI).

Molecules are shown by their SMILES.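 1) Cells in 96-well plates. 2) Compound, 48 h, 5 concentrations. 3) Linear interpolation between surrounding doses. 4) Unreached endpoint = highest concentration. Definition used: TGI = concentration required for complete inhibition of growth.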

On to `CC(=O)OCC1OC(OC2C(COC(C)=O)OC(Sc3ccccc3C)C(OC(C)=O)C2OC(C)=O)C(OC(C)=O)C(OC(C)=O)C1OC(C)=O` (centres undefined), for which the TGI in assay [1], in assay [2], in [3], in assay [4], in assay [5] and in [6] was more than 100 µM each time. Further, the TGI in assay [7], in assay [8], in assay [9], in [10], in assay [11] and in assay [12] was more than 100 µM throughout. Besides, in assay [13], the TGI was more than 100 µM.
For the compound `NS(=O)(=O)c1ccc(Nc2c3ccccc3nc3c(C(=O)N4CCN(CCO)CC4)cccc23)cc1`, the TGI in assay [1], in assay [2], in assay [3], in [4], in assay [5] and in assay [6] was more than 100 µM each time. Besides, the TGI in assay [7], in assay [8], in assay [9], in assay [14], in assay [10] and in assay [15] was more than 100 µM throughout. The TGI in assay [11], in assay [12] and in assay [13] was more than 100 µM throughout.
Consider `O=c1[nH]c(=O)n(C2CC(O)C(CO)O2)cc1C(F)(C(F)(F)F)C(F)(F)F` (centres undefined), for which the TGI in assay [1], in assay [2], in assay [3], in assay [4], in assay [5] and in [6] was more than 100 µM throughout. For the same compound, the TGI in assay [7], in assay [8], in assay [9], in [14], in [10] and in assay [15] was more than 100 µM in each case. In addition, the TGI in [11], in assay [12] and in assay [13] was more than 100 µM throughout.
On to `CSc1ccc2c(cc1=O)[C@@H](NC(=O)c1ccc(Cl)cc1)CCc1cc(O)c(O)c(O)c1-2`, for which the TGI is more than 100 µM in assay [1]; more than 100 µM in assay [2]; more than 100 µM in assay [3]; more than 100 µM in [4]; 68.3 µM in assay [5]; more than 100 µM in assay [6]. In addition, the TGI in assay [7] is more than 100 µM; in assay [8], more than 100 µM; in assay [9], 52.1 µM; in assay [14], 56.5 µM; in assay [10], more than 100 µM; in assay [15] it was more than 100 µM. Also, the TGI in [11] was more than 100 µM; in assay [12], 75.8 µM; in [13] it was more than 100 µM.
Turning to `O=C1Cc2nc(CO)c(CO)c(CO)c2CO1`, the TGI in assay [1], in assay [2], in [3], in assay [4], in [5] and in assay [6] was more than 100 µM throughout. In addition, the TGI in assay [7], in [9], in [14], in assay [10], in assay [15] and in [11] was more than 100 µM each time. Further, the TGI in assay [12] and in [13] was more than 100 µM throughout.
For `CCOc1cn(C2OC(CO)C(O)C2O)c(=O)[nH]c1=O` (centres undefined), the TGI in assay [1], in assay [2], in assay [3], in [4], in [5] and in assay [6] was more than 100 µM throughout. In addition, the TGI in assay [7], in assay [8], in assay [9], in assay [14], in assay [10] and in assay [15] was more than 100 µM each time. The TGI in assay [12] and in [13] was more than 100 µM each time.
Turning to `COc1ccc(C2ON(c3ccccc3)CC=C2C)cc1` (centres undefined), the TGI in assay [1], in assay [3], in [5], in [6], in [7] and in assay [8] was more than 100 µM throughout. The TGI in assay [9] was 99.5 µM; in [14], more than 100 µM; in assay [10], more than 100 µM; in [15] it was more than 100 µM; in assay [11], more than 100 µM; in assay [12] it was more than 100 µM. Besides, in assay [13], the TGI is more than 100 µM.
For the compound `COc1cccc(/C=C/C(=O)c2sc(C(N)=S)nc2C)c1O`, the TGI in [1], in assay [2], in [3], in [4], in assay [5] and in assay [6] was more than 100 µM each time. Besides, the TGI is more than 100 µM in [7]; more than 82.8 µM in assay [8]; more than 74 µM in assay [9]; more than 100 µM in [14]; more than 100 µM in [10]; more than 100 µM in [15]. In addition, the TGI in [11] is 97 µM; in [12] it was more than 100 µM; in assay [13] it was more than 100 µM.
As to `COc1ccc(C(=O)c2c3cc(OC)c(OC)c(OC)c3cc[n+]2C)cc1`, the TGI in [1] is 33.5 µM; in [2] it was more than 100 µM; in assay [3], more than 100 µM; in [5] it was more than 100 µM; in assay [6], more than 100 µM; in assay [7], more than 100 µM. Further, the TGI in assay [8] was more than 100 µM; in assay [9], 62.4 µM; in assay [10], more than 100 µM; in assay [15], more than 100 µM; in assay [12], more than 100 µM; in [13], more than 100 µM.
As for `CC(=O)Nc1ccc(-c2nnc(SCC(=O)Nc3cccc(Cl)c3)o2)cc1`, the TGI was 23.7 µM in [1]; 34 µM in [2]; 36.2 µM in assay [3]; more than 100 µM in [5]; 29.5 µM in assay [6]; 26.8 µM in [7]. The TGI in assay [8] is 51.8 µM; in assay [9], 23.5 µM; in assay [14] it was 22.1 µM; in assay [10], 40.3 µM; in assay [15], more than 100 µM; in [11] it was 34.8 µM. In addition, the TGI was 31.6 µM in assay [12] and 76.9 µM in assay [13].
On to `COc1cc2oc(-c3ccccc3)cc(=O)c2c(O)c1C`, for which the TGI in assay [1], in [2], in assay [3], in assay [4], in assay [5] and in assay [6] was more than 100 µM each time. Further, the TGI in assay [7], in assay [8], in assay [9], in assay [14], in assay [10] and in assay [15] was more than 100 µM throughout. For the same compound, the TGI in [11], in [12] and in assay [13] was more than 100 µM each time.
On to `COC(=O)[C@@]1(C)C(=O)CC[C@@H]1C=O`, for which the TGI in assay [1], in assay [2], in assay [3], in [5], in assay [6] and in assay [7] was more than 100 µM in each case. In addition, the TGI in [8], in assay [9], in assay [14], in assay [10], in assay [15] and in [11] was more than 100 µM each time. The TGI in assay [12] and in assay [13] was more than 100 µM throughout.
Turning to `COc1ccc(N2C(=O)C3c4[nH]c5ccccc5c4C4CC(C)(C)CC(C)(C)C4C3C2=O)cc1` (centres undefined), the TGI in assay [1] was 28.3 µM; in assay [2] it was 30.1 µM; in assay [3] it was 31.3 µM; in [4], 28.7 µM; in assay [5] it was more than 100 µM; in [6], 41.8 µM. For the same compound, the TGI was 36.3 µM in assay [7]; 36.6 µM in [8]; 38.1 µM in assay [9]; 11.1 µM in assay [15]; 27.2 µM in assay [11]; 33.2 µM in assay [12]. For the same compound, the TGI in [13] was more than 100 µM.
For `CC(=O)OCCOCNC(=S)N/N=C/c1cc([N+](=O)[O-])ccc1O`, the TGI in assay [1], in [2], in assay [3], in assay [4], in [5] and in [6] was more than 100 µM throughout. The TGI in [7], in [9], in assay [14], in assay [10], in assay [15] and in [11] was more than 100 µM each time. Also, the TGI in [12] and in assay [13] was more than 100 µM each time.
`c1cc2nnsc2s1`: the TGI in [1], in assay [2], in assay [3], in [4], in assay [5] and in assay [6] was more than 100 µM throughout. The TGI in assay [7], in assay [8], in assay [9], in [10], in [15] and in assay [11] was more than 100 µM each time. Moreover, the TGI in [12] and in assay [13] was more than 100 µM each time.
For `CN/C=C(\C(=O)c1ccc(OC)c(OC)c1)c1ccc(OC)cc1`, the TGI in assay [1] was found to be 23.9 µM; in [2], 28.2 µM; in assay [3] it was 94 µM; in assay [5], 27.1 µM; in [6] it was 37 µM; in assay [8], 62 µM. Also, the TGI in assay [9] was 36 µM; in assay [15], 30.4 µM; in assay [11], 14.1 µM; in assay [12], 31.7 µM; in [13], 48.6 µM.
For `COc1cc(CC2c3cc(OC)c(OC)cc3CCN2C)ccc1O` (centres undefined), the TGI in assay [1], in assay [2], in assay [3], in assay [5], in assay [6] and in assay [7] was more than 100 µM throughout. For the same compound, the TGI in [8], in assay [9], in [14], in assay [10], in assay [15] and in [11] was more than 100 µM throughout. For the same compound, the TGI in assay [12] and in assay [13] was more than 100 µM each time.
Consider `CC(c1ccc2c(c1)CCC1C2CC2OC23CC=CC(=O)[C@]13C)C1C[C@]2(C)O[C@]2(C)[C@H](O)O1` (some centres undefined), for which the TGI in assay [1] is more than 100 µM; in assay [3] it was 40.3 µM; in assay [4], more than 100 µM; in [5], more than 100 µM; in [6], 33.7 µM; in [7], more than 100 µM. The TGI in assay [8], in assay [9], in assay [14], in [10], in assay [15] and in [11] was more than 100 µM each time. Further, the TGI in assay [12] and in [13] was more than 100 µM throughout.
As for `COC1(C)C(=O)N2C1N(C(=O)OC(C)(C)C)CC2(C)C` (centres undefined), the TGI in [1], in assay [2], in assay [3], in [4], in assay [5] and in [6] was more than 100 µM throughout. Moreover, the TGI in [7], in assay [8], in [9], in [14], in assay [10] and in [15] was more than 100 µM throughout. The TGI in assay [11], in assay [12] and in [13] was more than 100 µM each time.
